Tested on: neutrophils isolated from healthy donors
Test: In vitro NETosis assay (SEM images, MATLAB quantification)
Type: cell-based, human
Conditions: healthy donor neutrophils pooled n=4, 6 hrs

Structure (SMILES) | induction of NETosis in healthy neutrophils
CNc1ccc2oc(C[C@H]3O[C@@]4(CC[C@H]3C)O[C@H]([C@H](C)C(=O)c3ccc[nH]3)[C@H](C)C[C@H]4C)nc2c1C(=O)O [A23187] | stimulated to NETosis
CCCCCCCCCCCCCC(=O)O[C@@H]1[C@@H](C)[C@@]2(O)[C@@H](C=C(CO)C[C@]3(O)C(=O)C(C)=C[C@@H]23)[C@@H]2C(C)(C)[C@]12OC(C)=O [PMA, Phorbol 12-myristate 13-acetate] | stimulated to NETosis

Source: patent US20240383971A1, “Anti-DFS70 Autoantibodies and methods of attenuating formation of nets” (McMaster University, priority 2023, published 2024)
